In brackets after ≈: the same amount, converted by molar mass. Like-named read-outs stand apart in the source and are kept apart here.
Experiments:
[1] = test system: Pseudomonas aeruginosa (Pa); experiment: MIC for Pseudomonas aeruginosa, nutrient agar; type: cell-based, Pseudomonas aeruginosa ATCC 10145; conditions: 48 hours, read-out: Minimum Inhibitory Concentration (MIC), Pa
Procedure, shortened: (§1)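 Growth inhibition scored visually after 48 h at 30° C on nutrient agar plates (pH 6.8 and pH 8.2) into which compound had been incorporated at 0–500 ppm final. Inocula of 10^8 CFU/mL were applied by replicator.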

Candida albicans (Ca) = experiment: MIC for Candida albicans, malt yeast agar; type: cell-based, Candida albicans ATCC 10231; conditions: malt yeast agar; 30° C., 48 hours for yeast; read-out: Minimum Inhibitory Concentration (MIC), Ca
Procedure, shortened: (§2)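 Agar dilution on malt yeast agar with compound (from 1% acetone/water solution) at final 0, 1.0, 2.5, 5, 10, 25, 50, 100, 250, 500 ppm. Plates inoculated by replicator with saline suspensions (1:9 diluted) of 7-day cultures; incubated at 30 °C, read at 48 h for yeast and 72 h for fungi.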

[2] = test system: Aureobasidium pullulan (Ap); experiment: MIC for Aureobasidium pullulan, malt yeast agar; type: cell-based, Aureobasidium pullulan ATCC 16622; conditions: malt yeast agar; 30° C.; 48 hours for yeast and 72 hours for fungi; read-out: Minimum Inhibitory Concentration (MIC), Ap
Procedure, shortened: as §2

Saccharomyces cerevisiae = experiment: MIC for Saccharomyces cerevisiae, malt yeast agar; type: cell-based, Saccharomyces cerevisiae ATCC 4105; conditions: malt yeast agar, 30° C., 48 hours for yeast, read-out: Minimum Inhibitory Concentration (MIC), Sc
Procedure, shortened: as §2

Trichoderma viride (Tv) = experiment: MIC for Trichoderma viride, malt yeast agar; type: cell-based, Trichoderma viride ATCC 8678; conditions: malt yeast agar; 30° C., 72 hours for fungi; read-out: Minimum Inhibitory Concentration (MIC), Tv
Procedure, shortened: as §2

[3] = test system: Enterobacter aerogenes (Ea); experiment: MIC for Enterobacter aerogenes, nutrient agar; type: cell-based, Enterobacter aerogenes ATCC 13048; conditions: Klebsiella aerogenes, nutrient agar, 30° C., 48 hours, read-out: Minimum Inhibitory Concentration (MIC), Ea
Procedure, shortened: as §1

Bacillus subtilis (Bs) = experiment: MIC for Bacillus subtilis, nutrient agar; type: cell-based, Bacillus subtilis ATCC 8473; conditions: 30° C., 48 hours, read-out: Minimum Inhibitory Concentration (MIC), Bs
Procedure, shortened: as §1

Fusarium oxysporum (Fo) = experiment: MIC for Fusarium oxysporum, malt yeast agar; type: cell-based, Fusarium oxysporum ATCC 48112; conditions: malt yeast agar; 30° C., 72 hours for fungi; read-out: Minimum Inhibitory Concentration (MIC), Fo
Procedure, shortened: as §2

Aspergillus niger (An) = experiment: MIC for Aspergillus niger, malt yeast agar; type: cell-based, Aspergillus niger ATCC 16404; conditions: malt yeast agar; 30° C., 72 hours for fungi; read-out: Minimum Inhibitory Concentration (MIC), An
Procedure, shortened: as §2

[4] = test system: Staphylococcus aureus (Sa); experiment: MIC for Staphylococcus aureus, nutrient agar; type: cell-based, Staphylococcus aureus ATCC 6538; conditions: 30° C., 48 hours, read-out: Minimum Inhibitory Concentration (MIC), Sa
Procedure, shortened: as §1

Escherichia coli (Ec) = experiment: MIC for Escherichia coli, nutrient agar; type: cell-based, Escherichia coli ATCC 11229; conditions: 30° C., 48 hours, read-out: Minimum Inhibitory Concentration (MIC), Ec
Procedure, shortened: as §1

[5] = test system: Penicillium chrysogenum (Pc); experiment: MIC for Penicillium chrysogenum, malt yeast agar; type: cell-based, Penicillium chrysogenum ATCC 9480; conditions: malt yeast agar; 30° C., 72 hours for fungi; read-out: Minimum Inhibitory Concentration (MIC), PC
Procedure, shortened: as §2

Salmonella choleraesuis = experiment: MIC for Salmonella choleraesuis, nutrient agar; type: cell-based, Salmonella choleraesuis ATCC 10708; conditions: Salmonella enterica, 30° C., 48 hours, read-out: Minimum Inhibitory Concentration (MIC), SC
Procedure, shortened: as §1

[6] = test system: Klebsiella pneumonias (Kp); experiment: MIC for Klebsiella pneumonias, nutrient agar; type: cell-based, Klebsiella pneumonias ATCC 8308; conditions: 30° C., 48 hours, read-out: Minimum Inhibitory Concentration (MIC), Kp
Procedure, shortened: as §1

Proteus vulgaris (Pv) = experiment: MIC for Proteus vulgaris, nutrient agar; type: cell-based, Proteus vulgaris ATCC 881; conditions: 30° C., 48 hours, read-out: Minimum Inhibitory Concentration (MIC), Pv
Procedure, shortened: as §1

[7] = test system: Pseudomonas aeruginosa (PRD-10); experiment: MIC for Pseudomonas aeruginosa PRD-10, nutrient agar; type: cell-based, Pseudomonas aeruginosa ATCC 15442; conditions: 30° C., 48 hours, read-out: Minimum Inhibitory Concentration (MIC), PRD
Procedure, shortened: as §1

With `N#CC1=C(C#N)Sc2c(cnn(-c3ccc(Cl)cc3)c2=O)S1` [D, 5,6-dihydro-6-(4-chlorophenyl)-5-oxo-1,4-dithiino-(2,3-d)-pyridazine-2,3-dicarbonitrile] the MIC ([1]; pH 6.8, 30° C.) was > 500 µg/mL, the MIC ([1]; pH 8.2, 30° C.) was > 500 µg/mL and the MIC (Candida albicans (Ca)) was 10 µg/mL (≈ 29 µM). The MIC [2] was 10 µg/mL (≈ 29 µM), the MIC (Saccharomyces cerevisiae) was 10 µg/mL (≈ 29 µM) and the MIC (Trichoderma viride (Tv)) was 25 µg/mL (≈ 72.5 µM). The MIC ([3]; pH 6.8) was > 500 µg/mL, the MIC ([3]; pH 8.2) was > 500 µg/mL and the MIC (Bacillus subtilis (Bs); pH 6.8, nutrient agar) was 25 µg/mL (≈ 72.5 µM). The MIC (Bacillus subtilis (Bs); pH 8.2, nutrient agar) was 250 µg/mL (≈ 725 µM), the MIC (Fusarium oxysporum (Fo)) was 10 µg/mL (≈ 29 µM) and the MIC (Aspergillus niger (An)) was 10 µg/mL (≈ 29 µM). The MIC ([4]; pH 6.8, nutrient agar) was > 500 µg/mL, the MIC ([4]; pH 8.2, nutrient agar) was > 500 µg/mL and the MIC (Escherichia coli (Ec); pH 6.8, nutrient agar) was 100 µg/mL (≈ 290 µM). For the same compound, the MIC (Escherichia coli (Ec); pH 8.2, nutrient agar) was > 500 µg/mL, the MIC [5] was 25 µg/mL (≈ 72.5 µM) and the MIC (Salmonella choleraesuis; pH 6.8, nutrient agar) was 100 µg/mL (≈ 290 µM). For the same compound, the MIC (Salmonella choleraesuis; pH 8.2, nutrient agar) was > 500 µg/mL, the MIC ([6]; pH 6.8, nutrient agar) was > 500 µg/mL and the MIC ([6]; pH 8.2, nutrient agar) was > 500 µg/mL. The MIC (Proteus vulgaris (Pv); pH 6.8, nutrient agar) was 100 µg/mL (≈ 290 µM), the MIC (Proteus vulgaris (Pv); pH 8.2, nutrient agar) was > 500 µg/mL and the MIC ([7]; pH 6.8, nutrient agar) was 500 µg/mL (≈ 1450 µM). The MIC ([7]; pH 8.2, nutrient agar) was > 500 µg/mL.

— patent US5488051A, “Substituted 5,6-dihydro-5-oxo-1,4-dithiino-(2,3-d)-pyridazine-2,3-dicarbonitriles, compositions containing them and their use as antimicrobials” (The Dow Chemical Company, priority 1994, dated 1996)
